The values below come from ChEMBL document CHEMBL1158968, “Novel cytotoxic principles of Formosan Ganoderma lucidum” (1991).

Test [1] can be described thus: Cytotoxicity against human PLC/PRF/5 cells after 4 days. Format: functional. Particulars: PLC-PRF-5, 96 h, read-out: ED50 (the source's name).
The subject of the next test is KB. The test can be described thus: Cytotoxicity against human KB cells after 4 days. Format: functional. The conditions noted are these: 96 h, read-out: ED50 (the source's name).

Values after ≈ are worked out from the molar mass of the structure shown.

Turning to `C/C(=C\CC[C@@H](C)[C@H]1CC[C@@]2(C)C3=C(C(=O)C[C@]12C)[C@@]1(C)CC[C@H](O)C(C)(C)[C@@H]1CC3)CO` [2H-GANODERIC ALDEHYDE A], the EC50 was found to be 10.7 mg/L (≈ 23.5 µM) in test [1] and 8.27 mg/L (≈ 18.1 µM) in the test with KB.
As to `CC(C)[C@@H](C)/C=C/[C@@H](C)[C@H]1CC[C@@H]2[C@]1(C)CC[C@H]1[C@]23C=C[C@]2(C[C@@H](O)CC[C@]12C)OO3` [ERGOSTEROL PEROXIDE], the EC50 is 11 mg/L (≈ 25.6 µM) in test [1] and 9.79 mg/L (≈ 22.8 µM) in the test on KB.
Take `C/C(C=O)=C\CC[C@@H](C)[C@H]1CC[C@@]2(C)C3=C(C(=O)C[C@]12C)[C@@]1(C)CC[C@H](O)C(C)(C)[C@@H]1CC3` [GANODERIC ALDEHYDE A]: the EC50 in test [1] amounted to 2.54 mg/L (≈ 5.59 µM); in the test with KB, 1.25 mg/L (≈ 2.75 µM).
